In patent US9908868B2, “Isoindolinone compounds as GPR119 modulators for the treatment of diabetes, obesity, dyslipidemia and related disorders” (SANOFI, priority 2014, dated 2018):

The compounds below were run against T1, human GPR119 (Homo sapiens, UniProt Q8TDV5) (assay: Functional cellular assay measuring GPR119-mediated cAMP release (HTRF) in HEK-293 cells stably expressing recombinant human GPR119). Conditions: cAMP response, cell line expressing human GPR119, 30 minutes at room temperature.
T1 construct: expressed in transfected cells
T1 sequence (Q8TDV5 1-335): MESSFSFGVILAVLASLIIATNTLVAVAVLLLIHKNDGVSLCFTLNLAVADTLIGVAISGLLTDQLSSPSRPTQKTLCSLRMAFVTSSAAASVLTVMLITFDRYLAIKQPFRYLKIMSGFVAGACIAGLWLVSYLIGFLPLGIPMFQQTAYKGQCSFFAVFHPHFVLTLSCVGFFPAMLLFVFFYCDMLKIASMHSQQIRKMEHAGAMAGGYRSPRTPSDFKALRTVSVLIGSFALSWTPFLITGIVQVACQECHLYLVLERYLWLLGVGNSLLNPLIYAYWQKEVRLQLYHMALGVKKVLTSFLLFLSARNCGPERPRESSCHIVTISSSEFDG
Type: cell-based
Method: Functional Cellular Assays Measuring GPR119-Mediated cAMP Release
Compounds of the invention, which are agonists of GPR119, were characterized by functional assays measuring the cAMP response of HEK-293 cell lines stably expressing recombinant GPR119 from man, mouse or rat, or by using a hamster cell line HIT-T15 expressing GPR119 endogenously. The cAMP content was determined using a kit based on homogenous time-resolved fluorescence (HTRF) from Cisbio Corp. (cat. no. 62AM4PEC). For preparation, cells were split into T175 culture flasks and grown to near confluency in medium (DMEM/10% FCS for HEK-293 cells, and F-12K medium/10% horse serum/2.5% FCS for HIT-T15 cells, respectively). Medium was then removed and cells washed with PBS lacking calcium and magnesium ions, followed by proteinase treatment with accutase (Sigma-Aldrich, cat. no. A6964). Detached cells were washed and resuspended in assay buffer (1×HBSS; 20 mM HEPES, 0.1% BSA, 2 mM IBMX) and cellular density determined. They were then diluted to 400000 cells/mL and 25 μL-aliquots dispensed to the wells of 96-well plates. For measurement, 25 μL of test compound in assay buffer was added and incubated for 30 minutes at room temperature. After addition of HTRF reagents diluted in lysis buffer, the plates were incubated for 1 hour, followed by measuring the fluorescence ratio at 665 vs. 620 nm. Potency of the agonists was quantified by determining the concentrations that caused 50% of the maximal response/activation (EC50). See Table 7 for exemplary data obtained using the cell line expressing human GPR119.

SMILES | EC50 [nM]
CN(C)C(=O)CN1Cc2ccc(N3CC[C@@H](Oc4ccc(C(=O)C5CC(F)(F)C5)cc4)C3=O)cc2C1=O [Example 2-63, 2-[6-[(3R)-3-[4-(3,3-difluorocyclobutanecarbonyl)phenoxy]-2-oxo-pyrrolidin-1-yl]-1-oxo-isoindolin-2-yl]-N,N-dimethyl-acetamide] | 98
CN(C)C(=O)CN1Cc2ncc(N3CC[C@@H](Oc4ccc(Oc5ccc(F)cc5)nc4)C3=O)cc2C1=O [Example 1-28, 2-[3-[(3R)-3-[[6-(4-fluorophenoxy)-3-pyridyl]oxy]-2-oxo-pyrrolidin-1-yl]-5-oxo-7H-pyrrolo[3,4-b]pyridin-6-yl]-N,N-dimethyl-acetamide] | 976
CS(=O)(=O)CN1Cc2ncc(N3CC[C@@H](Oc4ccc(OCC(F)(F)F)nc4)C3=O)cc2C1=O [Example 1-67, 6-(methylsulfonylmethyl)-3-[(3R)-2-oxo-3-[[6-(2,2,2-trifluoroethoxy)-3-pyridyl]oxy]pyrrolidin-1-yl]-7H-pyrrolo[3,4-b]pyridin-5-one] | 81
CN(C)C(=O)CN1Cc2ccc(N3CC[C@@H](Oc4ccc(CCCC5CC5)nc4)C3=O)cc2C1=O [Example 2-02, 2-[6-[(3R)-3-[[6-(3-cyclopropylpropyl)-3-pyridyl]oxy]-2-oxo-pyrrolidin-1-yl]-1-oxo-isoindolin-2-yl]-N,N-dimethyl-acetamide] | 56
C[S+]([O-])CN1Cc2ccc(N3CC[C@@H](Oc4ccc(C(=O)C5CC5)nc4)C3=O)cc2C1=O (stereo partly drawn) [Example 1-58, 6-[(3R)-3-[[6-(cyclopropanecarbonyl)-3-pyridyl]oxy]-2-oxo-pyrrolidin-1-yl]-2-(methylsulfinylmethyl)isoindolin-1-one] | 680
CN(C)C(=O)c1nc2ccc(N3CC[C@@H](Oc4ccc(OCC5CC5)nc4)C3=O)cc2c(=O)n1C [Example 1-43, 6-[(3R)-3-[[6-(cyclopropylmethoxy)-3-pyridyl]oxy]-2-oxo-pyrrolidin-1-yl]-N,N,3-trimethyl-4-oxo-quinazoline-2-carboxamide] | 449
CN(C)C(=O)CN1Cc2ccc(N3CC[C@@H](Oc4ccc(Oc5ccccn5)cc4)C3=O)cc2C1=O [Example 2-23, N,N-dimethyl-2-[1-oxo-6-[(3R)-2-oxo-3-[4-(2-pyridyloxy)phenoxy]pyrrolidin-1-yl]isoindolin-2-yl]acetamide] | 261
COC(=O)CN1Cc2ccc(N3CC[C@@H](Oc4ccc(OCC(F)(F)F)nc4)C3=O)cc2C1=O [Example 1-65, methyl 2-[1-oxo-6-[(3R)-2-oxo-3-[[6-(2,2,2-trifluoroethoxy)-3-pyridyl]oxy]pyrrolidin-1-yl]isoindolin-2-yl]acetate] | 52
CCOC(=O)CCc1cc(O[C@@H]2CCN(c3ccc4c(c3)C(=O)N(CC(=O)N(C)C)C4)C2=O)ccc1Cl [Example 2-45, ethyl 3-[2-chloro-5-[(3R)-1-[2-[2-(dimethylamino)-2-oxo-ethyl]-3-oxo-isoindolin-5-yl]-2-oxo-pyrrolidin-3-yl]oxy-phenyl]propanoate] | 1510
CCNC(=O)CN1Cc2ccc(N3CC[C@@H](Oc4ccc(OCC(F)(F)F)nc4)C3=O)cc2C1=O [Example 4-39, N-ethyl-2-[1-oxo-6-[(3R)-2-oxo-3-[[6-(2,2,2-trifluoroethoxy)-3-pyridyl]oxy]pyrrolidin-1-yl]isoindolin-2-yl]acetamide] | 205
CCN(CC)C(=O)CN1Cc2ccc(N3CC[C@@H](Oc4ccc(OCC(F)(F)F)nc4)C3=O)cc2C1=O [Example 4-41, N,N-diethyl-2-[1-oxo-6-[(3R)-2-oxo-3-[[6-(2,2,2-trifluoroethoxy)-3-pyridyl]oxy]pyrrolidin-1-yl]isoindolin-2-yl]acetamide] | 40
CCOc1ccc(O[C@@H]2CCN(c3cc(F)c4c(c3)C(=O)N(CC(=O)NC)C4)C2=O)cn1 [Example 4-13, 2-[6-[(3R)-3-[(6-ethoxy-3-pyridyl)oxy]-2-oxo-pyrrolidin-1-yl]-4-fluoro-1-oxo-isoindolin-2-yl]-N-methyl-acetamide] | 326
CN(C)C(=O)CN1Cc2ccc(N3CC[C@@H](Oc4ccc(Cl)nc4)C3=O)cc2C1=O [Example 2-10, 2-[6-[(3R)-3-[(6-chloro-3-pyridyl)oxy]-2-oxo-pyrrolidin-1-yl]-1-oxo-isoindolin-2-yl]-N,N-dimethyl-acetamide] | 2070
CN(C)C(=O)CN1Cc2ccc(N3CC[C@@H](Oc4ccc(-c5cnccn5)cc4)C3=O)cc2C1=O [Example 2-38, N,N-dimethyl-2-[1-oxo-6-[(3R)-2-oxo-3-(4-pyrazin-2-ylphenoxy)pyrrolidin-1-yl]isoindolin-2-yl]acetamide] | 808
CN(C)C(=O)CN1Cc2ccc(N3CC[C@@H](Oc4ccc(C(=O)C5CC5)cc4)C3=O)cc2C1=O [Example 2-48, 2-[6-[(3R)-3-[4-(cyclopropanecarbonyl)phenoxy]-2-oxo-pyrrolidin-1-yl]-1-oxo-isoindolin-2-yl]-N,N-dimethyl-acetamide] | 202
COC(=O)CN1Cc2ccc(N3CC[C@@H](Oc4ccc(OCCC5CC5)nc4)C3=O)cc2C1=O [Example 1-32, methyl 2-[6-[(3R)-3-[[6-(2-cyclopropylethoxy)-3-pyridyl]oxy]-2-oxo-pyrrolidin-1-yl]-1-oxo-isoindolin-2-yl]acetate] | 63
CNC(=O)CN1Cc2ccc(N3CC[C@@H](Oc4ccc(OCC5CC5)nc4)C3=O)cc2C1=O [Example 4-09, 2-[6-[(3R)-3-[[6-(cyclopropylmethoxy)-3-pyridyl]oxy]-2-oxo-pyrrolidin-1-yl]-1-oxo-isoindolin-2-yl]-N-methyl-acetamide] | 107
O=C(O)CN1Cc2c(F)cc(N3CC[C@@H](Oc4ccc(OCC5CC5)nc4)C3=O)cc2C1=O [Example 3-01, 2-[6-[(3R)-3-[[6-(cyclopropylmethoxy)-3-pyridyl]oxy]-2-oxo-pyrrolidin-1-yl]-4-fluoro-1-oxo-isoindolin-2-yl]acetic acid] | 1050
O=C(CN1Cc2ccc(N3CC[C@@H](Oc4ccc(OCC5CC5)nc4)C3=O)cc2C1=O)NC1CC1 [Example 4-08, N-cyclopropyl-2-[6-[(3R)-3-[[6-(cyclopropylmethoxy)-3-pyridyl]oxy]-2-oxo-pyrrolidin-1-yl]-1-oxo-isoindolin-2-yl]acetamide] | 168
O=C1c2cc(N3CC[C@@H](Oc4ccc(OCCC5CC5)nc4)C3=O)cc(F)c2CN1CCCO [Example 5-06, 6-[(3R)-3-[[6-(2-cyclopropylethoxy)-3-pyridyl]oxy]-2-oxo-pyrrolidin-1-yl]-4-fluoro-2-(3-hydroxypropyl)isoindolin-1-one] | 609
CN(C)C(=O)CN1Cc2ccc(N3CC[C@@H](Oc4ccc(C(=O)c5ccc(F)cc5)cc4)C3=O)cc2C1=O [Example 2-15, 2-[6-[(3R)-3-[4-(4-fluorobenzoyl)phenoxy]-2-oxo-pyrrolidin-1-yl]-1-oxo-isoindolin-2-yl]-N,N-dimethyl-acetamide] | 66
COC(=O)CN1Cc2ccc(N3CC[C@@H](Oc4ccc(OCC5CC5)nc4)C3=O)cc2C1=O [Example 1-40, methyl 2-[6-[(3R)-3-[[6-(cyclopropylmethoxy)-3-pyridyl]oxy]-2-oxo-pyrrolidin-1-yl]-1-oxo-isoindolin-2-yl]acetate] | 44
